Laboratory results published in paper PMC9002018, “The Antimicrobial Peptide MPX Can Kill Staphylococcus aureus, Reduce Biofilm Formation, and Effectively Treat Bacterial Skin Infections in Mice” (Frontiers in Veterinary Science, 2022).
Where no end group is shown, it is not given here.

Legend:
trypsin = test: Protease stability assay with trypsin, read by agar diffusion; assay type: in vitro ADME; conditions: MPX 1.3 μM, 37°C, 30 min
Method: (§1) An MPX protease stability assay was performed in the following manner. MPX (1.3 μM) was mixed with equal volumes of proteinase K and trypsin at different concentrations. After incubating at 37°C for 30 min, the samples were incubated in a boiling water bath for 5 min to stop the protease reaction. The protease stability of MPX was detected by the agar diffusion assay.

A. pleuropneumoniae = conditions: previous experiment of the same laboratory; cited from earlier work
Source text: S. aureus can cause a wide range of infections, which can lead to organ failure and death in severe cases. It is one of the most common pathogens in communities and hospitals worldwide. The emergence and rapid spread of methicillin-resistant S. aureus strains have produced great challenges for clinical treatment. According to reports, patients with methicillin-resistant S. aureus infection have an increased clinical risk, especially an increased risk of mortality ([18]). Therefore, we must strengthen the prevention of MDR S. aureus infection, find effective alternatives to antibiotics, and ide ...

S. aureus ATCC 25923 [1] = test: Time-killing curve (OD600 and plate counting); assay type: cell-based, Staphylococcus aureus; conditions: 37°C
Method: S. aureus was cultivated, the OD600 of the bacterial solution was adjusted to approximately 1.0, and MPX (1×MIC, 4×MIC) was added. In addition, sterile water was used as a control. The samples were incubated with shaking at 37°C. The OD600 value of the bacterial solution was measured every 1 h, and plate counting was performed at the same time to obtain the antibacterial time-killing curve of MPX against S. aureus ATCC 25923 ([15]).

[2] = tested on: S. aureus ATCC 25923 biofilm; test: Biofilm observation by SEM and confocal laser microscopy (SYTO 9/PI); assay type: cell-based, Staphylococcus aureus; conditions: MPX 4×MIC added to 24 h biofilm
Method: S. aureus ATCC 25923 was cultivated as described above. After culturing in a 37°C incubator for 24 h, MPX (final concentration: 4×MIC) was added to the sample. […] S. aureus was washed 3 times with 0.85% NaCl to remove nucleic acids and other medium components. A LIVE/DEAD BacLight Bacterial Viability L-7012 Kit (Molecular Probes, Eugene, OR, USA), containing two component dyes (SYTO 9 and PI in a 1:1 mixture) in solution, was used prior to microscopy and quantitative assays according to the test instructions. A total of 3 μL of the dye mixture was added to each well, the wells were incubated at room temperature in the dark for 15 min, and the bacterial survival in the biofilm was observed by confocal laser microscopy.
A sterile slides were placed in 6-well cell culture plates and bacteria were allowed to grow naturally on the slides to form a biofilm. Overnight culture broth and fresh broth were added at a volume ratio of 1:100, and incubated at 37°C for 24 h. Different final concentrations of MPX (1×MIC, 4×MIC) were added, incubation was continued. Then, a 2.5% glutaraldehyde solution was added to each well, and the cells were fixed at room temperature for 30 min. The plate was rinsed 3 times with PBS for 10 min each time. Gradient dehydration was performed with increasing concentrations of an ethanol solution (30, 50, 70, 80, 90, 95, and 100%). […]

S. aureus ATCC 25923 [3] = test: BCA protein assay of bacterial supernatant (protein leakage); assay type: cell-based, Staphylococcus aureus; conditions: MPX (1×MIC, 4×MIC) for 5 min, BCA kit, P < 0.01, n = 3
Method: S. aureus was cultured overnight, washed and resuspended in sterile PBS. MPX (1×MIC, 4×MIC) was added to the bacterial solution. Sterile water was added as a control. A peptide-only group was a negative control. The mixture was allowed to stand for 5 min, and the supernatant was collected after centrifugation. The effect of MPX on the permeability of S. aureus ATCC 25923 for protein was analyzed according to the instructions of the BCA kit.

S. aureus ATCC 25923 [4] = test: Electron microscopy (SEM, TEM) of bacterial morphology; assay type: cell-based, Staphylococcus aureus
Method: A sterile slides were placed in 6-well cell culture plates and bacteria were allowed to grow naturally on the slides to form a biofilm. Overnight culture broth and fresh broth were added at a volume ratio of 1:100, and incubated at 37°C for 24 h. Different final concentrations of MPX (1×MIC, 4×MIC) were added, incubation was continued. Then, a 2.5% glutaraldehyde solution was added to each well, and the cells were fixed at room temperature for 30 min. The plate was rinsed 3 times with PBS for 10 min each time. Gradient dehydration was performed with increasing concentrations of an ethanol solution (30, 50, 70, 80, 90, 95, and 100%). After ion spray gold coating, biofilm formation was observed by scanning electron microscopy (SEM) ([17]).
Transmission electron microscopy (TEM) was used to detect the bacterial structure changes after MPX acted on S. aureus ATCC 25923. S. aureus was cultured overnight. MPX was added to different final concentrations. The cells were incubated with shaking at 37°C for 2 h, and then sodium phosphotungstate was used for negative staining. The effect of AMPs on S. aureus was observed. Centrifugation, fixation, dehydration, soaking, embedding and polymerization, sectioning and staining of the culture were performed. Finally, a transmission electron microscope was used to observe the results.

S. aureus ATCC 25923 [5] = test: DiSC3-5 assay for membrane potential; assay type: cell-based, Staphylococcus aureus; conditions: MPX 1×MIC
Method: Overnight-cultured S. aureus ATCC 25923 was centrifuged and resuspended in sterile PBS. A DiSC3-5 solution was added to a final concentration of 1 μM. The cells were incubated in the dark for 20 min. MPX (1×MIC, 2×MIC and 4×MIC) was added. Sterile water was used as the control, and AMP ([…]/50 μg/mL) was used as the positive control. The excitation wavelength was 622 nm, the emission wavelength was 670 nm, and the fluorescence intensity was detected by a microplate reader.

S. aureus [6] = test: Propidium iodide uptake (fluorescence microscopy); assay type: cell-based, Staphylococcus aureus; conditions: MPX 4×MIC for 0.5 h, compared with group without peptide
Method: S. aureus was centrifuged, washed, and resuspended in sterile PBS. MPX (4×MIC) was added to the bacterial solution. The bacteria were cultured with shaking at 37°C and then centrifuged and resuspended in PBS solution. The cells were incubated with propidium iodide (PI) stain for 10 min in the dark. The suspension was fixed on a clean glass slide and observed with a fluorescence microscope.

[7] = tested on: S. aureus ATCC 25923 biofilm; test: Crystal violet assay of biofilm formation; assay type: cell-based, Staphylococcus aureus; conditions: MPX 0.5×MIC, 24 h at 37°C, p < 0.01, n = 3
Method: An overnight culture of S. aureus was inoculated into a 96-well polystyrene microtiter plate at a ratio of 1%. MPX (0.25×MIC, 0.5×MIC and 1×MIC) was added to the wells. Sterile water was used as a control. The plates were incubated at 37°C for 24 h. The microplates were then washed 3 times with sterile PBS, and the cells were fixed with 70% methanol for 30 min. Then, the cells were stained with 1% Hucker crystal violet staining solution at room temperature for 5 min. The dyeing solution was aspirated, and the cells were rinsed with water until no color remained. Images were acquired after drying. Then, 100 μL of a 70% ethanol solution was added to each well to dissolve the residual dye, and a microplate reader was used to measure the absorbance at OD570 nm ([16]).

S. aureus ATCC 25923 [8] = test: NPN uptake (membrane integrity); assay type: cell-based, Staphylococcus aureus; conditions: MPX 0.02 μM (1×MIC), NPN 10 μM, ex 350 nm / em 420 nm, 0–10 min; comparator ampicillin 50 μg/mL
Method: S. aureus ATCC 25923 was cultured overnight in a 96-well plate. An NPN solution was added to a final concentration of 10 μM. The solutions were mixed well and incubated for 20 min. MPX (1×MIC, 4×MIC) was added to the wells. Sterile water was used as the control, and ampicillin (Amp) ([…]/50 μg/mL) was used as the positive control. The excitation wavelength was 350 nm, the emission wavelength was 420 nm, and the fluorescence intensity was detected by a microplate reader ([13]).

proteinase K = proteinase K (Parengyodontium album, UniProt P06873); test: Protease stability assay with proteinase K, read by agar diffusion; assay type: in vitro ADME; conditions: MPX 1.3 μM, 37°C, 30 min
Chain of proteinase K (P06873 106-384, species assumed): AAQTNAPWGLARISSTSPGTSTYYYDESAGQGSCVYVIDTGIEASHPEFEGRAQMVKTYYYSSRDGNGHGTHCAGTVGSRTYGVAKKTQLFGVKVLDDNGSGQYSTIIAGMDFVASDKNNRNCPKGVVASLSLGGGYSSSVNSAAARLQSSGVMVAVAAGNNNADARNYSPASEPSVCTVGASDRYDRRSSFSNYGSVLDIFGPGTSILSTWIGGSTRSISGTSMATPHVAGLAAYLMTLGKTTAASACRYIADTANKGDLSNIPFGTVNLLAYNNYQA
Method: as §1

S. aureus [9] = test: Stability to salt ions, pH, temperature and repeated freezing and thawing, read by agar diffusion; assay type: physicochemical, Staphylococcus aureus; conditions: n = 3
Method: […] Solutions with different pH values were prepared with HCl and NaOH, producing pH values of 4, 5, 6, 7, 8, 9, 10, and MPX was incubated in these solutions for 30 min. MPX solutions were also incubated at different temperatures for 30 min (0, 25, 50, 75, and 100°C). A 1 mg/mL MPX solution was repeatedly frozen and thawed 0, 2, 4, 6, 8, 10, and 12 times. Ten microlitres of each of the peptide solutions treated as described above was collected, and the changes in the antimicrobial activity of the AMPs were detected by the agar diffusion assay.

S. aureus ATCC 25923 [10] = test: Agar diffusion test of antibacterial activity; assay type: cell-based, Staphylococcus aureus; conditions: 1 mg/mL MPX, 20 μL per well, overnight at 37°C; sterile water control had no zone
Method: The agar diffusion test was used to detect the antibacterial effect of MPX on S. aureus ATCC 25923. S. aureus ATCC 25923 was cultured overnight, and the supernatant was discarded by centrifugation. The bacteria were washed with sterile PBS, and resuspended in a smaller volume to concentrate the cells. Next, 50 μL of the bacterial solution was pipetted into 15 mL of agar and shaken gently to mix. The plate was poured, a puncher was used to make holes after the agar medium had solidified and 20 μL of 1 mg/mL MPX was added to the wells. Sterile water was used as a control. The plates were incubated overnight at 37°C and the results were observed.

In the case of INWKGIAAMAKKLL-NH2 [MPX], the “effect of trypsin on antibacterial activity” value (trypsin; 20 μg/mL trypsin, agar diffusion, n = 3) is given as “significantly reduce”, the “residual antibacterial activity after trypsin” value (trypsin; 100 μg/mL trypsin, equal volumes, agar diffusion vs S. aureus ATCC 25923, n = 3) is given as 19.6% and the “effect of Ca2+ and Mg2+ on killing effect of MPX on A. pleuropneumoniae” value (A. pleuropneumoniae) is given as “significantly inhibit”. For the same substance, the “inhibition in killing curve” value (S. aureus ATCC 25923 [1]; MPX 1×MIC, within 5 h) was “relatively stable inhibition”, the “bacteria killed (killing curve)” value (S. aureus ATCC 25923 [1]; MPX 4×MIC, within 1 h, start OD600 approx. 1.0, plate counting, n = 3) was 99.9% and the “number of dead bacteria in the S. aureus biofilm (confocal, SYTO 9/PI)” value [2] was “significantly increased”. For the same substance, the “total protein content of bacterial culture supernatant” value (S. aureus ATCC 25923 [3]) was “significantly higher than that of the control group”, the “bacterial morphology (SEM/TEM)” value (S. aureus ATCC 25923 [4]; MPX 1×MIC) was “shrink and leak cell contents” and the “cell membrane of S. aureus (TEM)” value (S. aureus ATCC 25923 [4]; MPX 4×MIC, 2 h at 37°C) was “severely damaged”. The “time to membrane depolarization (DiSC3-5)” value (S. aureus ATCC 25923 [5]; 4×MIC, DiSC3-5 1 μM, ex 622 nm / em 670 nm) was ≤ 10 s, the “DiSC3-5 fluorescence intensity compared with antibiotic AMP” value (S. aureus ATCC 25923 [5]; comparator AMP 50 μg/mL) was “higher than that produced by the antibiotic AMP” and the “number of PI-stained bacteria” value (S. aureus [6]) was “significantly increased”. The “S. aureus biofilm formation (crystal violet, OD570)” value [7] was “significantly reduced”, the “NPN fluorescence intensity (membrane integrity)” value (S. aureus ATCC 25923 [8]) was “significantly higher than that of the control group and the antibiotic AMP treatment group” and the “effect of proteinase K on antibacterial activity” value (proteinase K; 40 μg/mL proteinase K, agar diffusion, n = 3) was “significantly reduced”. The “residual antibacterial activity after proteinase K” value (proteinase K; 100 μg/mL proteinase K, equal volumes, agar diffusion vs S. aureus ATCC 25923, n = 3) was 66.3%, the “effect of temperature on antibacterial activity of MPX (thermal stability)” value (S. aureus [9]; 0, 25, 50, 75 and 100°C for 30 min) was “basically no effect” and the “effect of repeated freezing and thawing on antimicrobial activity of MPX” value (S. aureus [9]; 1 mg/mL MPX frozen and thawed 0–12 times) was “did not change significantly”. For the same substance, the “effect of CaCl2 on antibacterial activity of MPX” value (S. aureus [9]; CaCl2 50, 100, 150, 200 and 250 mmol/mL, incubated 30 min) was “no significant effect”, the “effect of KCl on antibacterial activity of MPX” value (S. aureus [9]; KCl 50, 100, 150, 200 and 250 mmol/mL, incubated 30 min) was “little effect” and the “effect of MgCl2 on antibacterial activity of MPX” value (S. aureus [9]; MgCl2 50, 100, 150, 200 and 250 mmol/mL, incubated 30 min) was “no significant effect”. For the same substance, the “effect of NaCl on antibacterial activity of MPX” value (S. aureus [9]; NaCl 50, 100, 150, 200 and 250 mmol/mL, incubated 30 min) was “little effect”, the “effect of pH on MPX activity” value (S. aureus [9]; pH 4–10 (HCl/NaOH), incubated 30 min) was “basically no effect” and the “zone of inhibition (agar diffusion)” value (S. aureus ATCC 25923 [10]) was “produced a zone of inhibition”.
